Where a name gives a salt, the structure may show the parent alone. Read-outs that look alike come from different tables or passages of the source.
How the values were obtained:
[1] = biological target: T1, full-length SHP2 (His6-tagged SHP2(2-527)) (Homo sapiens, UniProt Q06124); experiment: SHP2 Enzymatic Assay (fluorescence intensity kinetic assay, DiFMUP hydrolysis); format: biochemical
T1 construct: His6-tagged SHP2(2-527); His6; made in house; host or cells: E. coli
Procedure, shortened: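 1 nM His6-SHP2(2-527), activated by 1 μM bis-phosphopeptide, hydrolysed 50 μM DiFMUP in 25 mM HEPES pH 7.4 with 1 mM DTT, 50 mM KCl and 2% DMSO. DiFMU fluorescence (Ex 355/Em 460 nm) was read kinetically for 15 min at ambient temperature.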

[2] = test system: ERK1/2 (Thr202/Tyr204) phosphorylation in KYSE520 cells; experiment: Cellular Phospho-p44/42 MAPK (Erk 1/2) (Thr202/Tyr204) Assay (In-Cell Western); format: cell-based; conditions: Homo sapiens, KYSE-520, 1 h, read-out: Biological Example 2 IC50 (nM)
Experimental: KYSE520 cells were obtained from DSMZ and grown in RPMI supplemented with 10% fetal bovine serum, pennicillin/streptomycin, 2 mM L-alanyl-L-glutamine dipeptide in 0.85% NaCl (Glutamax™), non-essential amino acids, and sodium pyruvate. Cells were plated in 96-well plates at 30,000 cells/well and allowed to attach overnight at 37° C./5% CO2. Cells were treated with compounds prepared as a 10-point, 1:3 dilution series (range: 20 μM-1 nM), with a final DMSO concentration of 0.5%. After 1 hour incubation, cells were fixed in 3.7% formaldehyde in Dulbecco's phosphate-buffered saline (“dPBS”) at room temperature for 20 minutes. Cells were then washed with dPBS and permeabilized in 100% MeOH at room temperature for 10 minutes. Following permeabilization, cells were washed in dPBS and incubated in LI-COR Blocking Buffer (LI-COR Biosciences, Cat #927-40000) for 1 hour or longer. Plates were then incubated with an antibody specific for the MEK-dependent ERK1/2 phosphorylation sites, threonine 202 and tyrosine 204 (Cell Signaling Technologies; Cat #9101), downstream of SHP2 in the MAP kinase signal transduction pathway, as well as GAPDH (Millipore; Cat #MAB374). pErk1/2 (Thr202/Tyr204) antibody was diluted in LI-COR blocking buffer containing 0.05% polysorbate-20 (Tween-20) at 1:250; GAPDH was diluted at 1:2,500. The plates were incubated overnight at 4° C. After washing with PBS/0.05% Tween-20, the cells were incubated with fluorescently-labeled secondary antibodies (Anti-rabbit-Alexa Flour680, Invitrogen Cat #A21109; Anti-mouse-IRDye800CW, Li-cor Bioscieces Cat #926-32210, both at 1:1000 dilution) for 1 hour. Cells were then washed, as above, and analyzed for fluorescence at both 680 nm and 800 nm wavelengths using the Aerius Infrared Imaging System (LI-COR Biosciences, Model 9250). Phosphorylated Erk1/2 (Thr202/Tyr204) signal was normalized to GAPDH signal for each well. IC50 values were calculated from the normalized values using a 4-parameter fit in BioAssay software. […] The reported IC50 in Table 2 may be from a single assay or the mean of multiple assays.

[3] = full-length SHP2 with 1 μM activating peptide, 50 μM DiFMUP, single assay or mean of multiple assays, read-out: Biological Example 1 IC50

T1 sequence (Q06124 2-527): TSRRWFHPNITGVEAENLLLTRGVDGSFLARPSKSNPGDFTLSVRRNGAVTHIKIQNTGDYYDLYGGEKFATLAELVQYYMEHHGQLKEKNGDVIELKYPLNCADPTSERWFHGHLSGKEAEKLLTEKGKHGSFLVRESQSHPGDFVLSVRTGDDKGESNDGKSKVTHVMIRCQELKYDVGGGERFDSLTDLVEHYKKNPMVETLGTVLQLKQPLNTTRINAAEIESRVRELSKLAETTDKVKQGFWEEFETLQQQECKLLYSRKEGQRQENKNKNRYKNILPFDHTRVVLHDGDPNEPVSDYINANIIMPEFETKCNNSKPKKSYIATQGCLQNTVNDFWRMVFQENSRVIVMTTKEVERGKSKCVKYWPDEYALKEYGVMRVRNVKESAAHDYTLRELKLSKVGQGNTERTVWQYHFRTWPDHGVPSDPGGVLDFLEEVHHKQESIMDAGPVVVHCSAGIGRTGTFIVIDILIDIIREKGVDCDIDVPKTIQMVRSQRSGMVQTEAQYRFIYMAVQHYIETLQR

SMILES	IC50 [1]	IC50 [2]	IC50 [1, 3]
Cc1nccc(Sc2ccc3nc(N4[C@H]5CC[C@H]4CC(N)C5)cnc3n2)c1Cl (stereo partly drawn) [Example 67, (1R,3s,5S)-8-(6-((3-chloro-2-methylpyridin-4-yl)thio)pyrido[2,3-b]pyrazin-2-yl)-8-azabicyclo[3.2.1]octan-3-amine dihydrochloride]	42 nM	48 nM	–
C[C@@H]1OCC2(CCN(c3cnc4nc(Sc5cccc(Cl)c5Cl)ccc4n3)CC2)[C@@H]1N [Example 4, (3S,4S)-8-(6-((2,3-dichlorophenyl)thio)pyrido[2,3-b]pyrazin-2-yl)-3-methyl-2-oxa-8-azaspiro[4,5]decan-4-amine]	64 nM	550 nM	–
Nc1nccc(Sc2ccc3nc(N4CC5CC(C4)N5)cnc3n2)c1Cl [Example 200, 4-((2-(3,6-diazabicyclo[3.1.1]heptan-3-yl)pyrido[2,3-b]pyrazin-6-yl)thio)-3-chloropyridin-2-amine]	48 nM	122 nM	–
Nc1nccc(Sc2ccc3nc(N4CCC5(CC4)CC(F)(F)C[C@H]5N)cnc3n2)c1Cl (stereo in doubt) [Example 218, 8-(6-((2-amino-3-chloropyridin-4-yl)thio)pyrido[2,3-b]pyrazin-2-yl)-3,3-difluoro-8-azaspiro[4.5]decan-1-amine]	47 nM	67 nM	–
C[C@@H]1OCC2(CCN(c3cnc4nc(Sc5ccnc(N6CCC[C@H]6CO)c5Cl)ccc4n3)CC2)[C@@H]1N [Example 71, ((S)-1-(4-((2-((3S,4S)-4-amino-3-methyl-2-oxa-8-azaspiro[4.5]decan-8-yl)pyrido[2,3-b]pyrazin-6-yl)thio)-3-chloropyridin-2-yl)pyrrolidin-2-yl)methanol]	120 nM	176 nM	–
CN[C@H]1CCCN(c2cnc3nc(Sc4ccnc(N)c4Cl)ccc3n2)CC1 [Example 91, (S)-1-(6-((2-amino-3-chloropyridin-4-yl)thio)pyrido[2,3-b]pyrazin-2-yl)-N-methylazepan-4-amine]	106 nM	317 nM	–
CC(C)(C#N)CNc1nccc(Sc2ccc3nc(N4CCC(C)(N)CC4)cnc3n2)c1Cl [Example 134, 3-((4-((2-(4-amino-4-methylpiperidin-1-yl)pyrido[2,3-b]pyrazin-6-yl)thio)-3-chloropyridin-2-yl)amino)-2,2-dimethylpropanenitrile]	238 nM	810 nM	–
N[C@@H]1c2cccnc2CC12CCN(c1cnc3nc(Sc4ccnc(NCCO)c4Cl)ccc3n1)CC2 [Example 108, (S)-2-((4-((2-(5-amino-5,7-dihydrospiro[cyclopenta[b]pyridine-6,4′-piperidin]-1′-yl)pyrido[2,3-b]pyrazin-6-yl)thio)-3-chloropyridin-2-yl)amino)ethan-1-ol]	84 nM	11 nM	–
C[C@@H]1OCC2(CCN(c3cnc4nc(Sc5ccnc6[nH]ccc56)ccc4n3)CC2)[C@@H]1N [Example 189, (3S,4S)-8-(6-((1H-pyrrolo[2,3-b]pyridin-4-yl)thio)pyrido[2,3-b]pyrazin-2-yl)-3-methyl-2-oxa-8-azaspiro[4.5]decan-4-amine]	59 nM	98 nM	–
Nc1nccc(Sc2ccc3nc(N4CCC5(CC4)Cc4ncc(F)cc4[C@H]5N)cnc3n2)c1Cl [Example 117, (S)-1′-(6-((2-amino-3-chloropyridin-4-yl)thio)pyrido[2,3-b]pyrazin-2-yl)-3-fluoro-5,7-dihydrospiro[cyclopenta[b]pyridine-6,4′-piperidin]-5-amine]	–	6 nM	50 nM
CC1(N)CCN(c2cnc3nc(Sc4ccnc(N)c4Cl)ccc3n2)CC1 [Example 1, 4-((2-(4-amino-4-methylpiperidin-1-yl)pyrido[2,3-b]pyrazin-6-yl)thio)-3-chloropyridin-2-amine]	–	59 nM	33 nM
Cc1nccc(Sc2ccc3nc(N4CCC(N)(CO)CC4)cnc3n2)c1Cl [Example 57, (4-amino-1-(6-((3-chloro-2-methylpyridin-4-yl)thio)pyrido[2,3-b]pyrazin-2-yl)piperidin-4-yl)methanol]	49 nM	91 nM	–
C[C@@H]1OCC2(CCN(c3cnc4nc(Sc5ccnc(N6CCC(O)CC6)c5Cl)ccc4n3)CC2)[C@@H]1N [Example 78, 1-(4-((2-((3S,4S)-4-amino-3-methyl-2-oxa-8-azaspiro[4.5]decan-8-yl)pyrido[2,3-b]pyrazin-6-yl)thio)-3-chloropyridin-2-yl)piperidin-4-ol]	331 nM	87 nM	–
N[C@@H]1c2cccnc2CC12CCN(c1cnc3nc(Sc4cccnc4C(F)(F)F)ccc3n1)CC2 [Example 163, (S)-1′-(6-((2-(trifluoromethyl)pyridin-3-yl)thio)pyrido[2,3-b]pyrazin-2-yl)-5,7-dihydrospiro[cyclopenta[b]pyridine-6,4′-piperidin]-5-amine]	52 nM	30 nM	–
Nc1nccc(Sc2ccc3nc(N4CCC[C@@H](N)CC4)cnc3n2)c1Cl [Example 41, (R)-1-(6-((2-amino-3-chloropyridin-4-yl)thio)pyrido[2,3-b]pyrazin-2-yl)azepan-4-amine]	56 nM	110 nM	–
Cc1ccc2c(c1)[C@@H](N)C1(CCN(c3cnc4nc(Sc5ccnc(N)c5Cl)ccc4n3)CC1)C2 [Example 178, (S)-1′-(6-((2-amino-3-chloropyridin-4-yl)thio)pyrido[2,3-b]pyrazin-2-yl)-6-methyl-1,3-dihydrospiro[indene-2,4′-piperidin]-1-amine]	–	17 nM	57 nM
Nc1nccc(Sc2ccc3nc(N4CCC5(CC4)Cc4ccccc4[C@H]5N)cnc3n2)c1Cl [Example 76, (S)-1′-(6-((2-amino-3-chloropyridin-4-yl)thio)pyrido[2,3-b]pyrazin-2-yl)-1,3-dihydrospiro[indene-2,4′-piperidin]-1-amine]	–	8 nM	28 nM
C[C@@H]1OCC2(CCN(c3cnc4nc(Sc5ccnc(N)c5Cl)ccc4n3)CC2)[C@@H]1N [Example 13, (3S,4S)-8-(6-((2-amino-3-chloropyridin-4-yl)thio)pyrido[2,3-b]pyrazin-2-yl)-3-methyl-2-oxa-8-azaspiro[4,5]decan-4-amine]	84 nM	79 nM	–
CNc1nccc(Sc2ccc3nc(N4CCC5(CC4)CO[C@@H](C)[C@H]5N)cnc3n2)c1Cl [Example 33, (3S,4S)-8-(6-((3-chloro-2-(methylamino)pyridin-4-yl)thio)pyrido[2,3-b]pyrazin-2-yl)-3-methyl-2-oxa-8-azaspiro[4.5]decan-4-amine]	100 nM	80 nM	–
C[C@@H]1OCC2(CCN(c3cnc4nc(Sc5ccnc(N6CCCC6)c5Cl)ccc4n3)CC2)[C@@H]1N [Example 25, (3S,4S)-8-(6-((3-chloro-2-(pyrrolidin-1-yl)pyridin-4-yl)thio)pyrido[2,3-b]pyrazin-2-yl)-3-methyl-2-oxa-8-azaspiro[4.5]decan-4-amine]	100 nM	650 nM	–
N[C@@H]1c2ccccc2CC12CCN(c1cnc3nc(Sc4ccnc5c4C(F)(F)C(=O)N5)ccc3n1)CC2 [Example 142, (S)-4-((2-(1-amino-1,3-dihydrospiro[indene-2,4′-piperidin]-1′-yl)pyrido[2,3-b]pyrazin-6-yl)thio)-3,3-difluoro-1,3-dihydro-2H-pyrrolo[2,3-b]pyridin-2-one]	26 nM	4 nM	–
C[C@@H]1OCC2(CCN(c3cnc4nc(Sc5ccnc(NCCO)c5Cl)ccc4n3)CC2)[C@@H]1N [Example 185, 2-((4-((2-((3S,4S)-4-amino-3-methyl-2-oxa-8-azaspiro[4.5]decan-8-yl)pyrido[2,3-b]pyrazin-6-yl)thio)-3-chloropyridin-2-yl)amino)ethan-1-ol]	408 nM	166 nM	–
N[C@@H]1c2cccnc2CC12CCN(c1cnc3nc(Sc4ccnc(N5CC[C@H](CO)C5)c4Cl)ccc3n1)CC2 [Example 210, ((S)-1-(4-((2-((S)-5-amino-5,7-dihydrospiro[cyclopenta[b]pyridine-6,4′-piperidin]-1′-yl)pyrido[2,3-b]pyrazin-6-yl)thio)-3-chloropyridin-2-yl)pyrrolidin-3-yl)methanol]	63 nM	16 nM	–
